Source: ChEMBL document CHEMBL1154467, “QSAR study about ATP-sensitive potassium channel activation of cromakalim analogues using CP-MLR approach” (Eur J Med Chem, 2008)

biological target: ATP-binding cassette sub-family C member 9 (Rattus norvegicus) (UniProt Q63563); test: […] of SUR2A/kir6.2 channel in Wistar rat thoracic aorta assessed as relaxation of Kcl-induced contraction; type: tissue-based
Sequence (Q63563 whole entry): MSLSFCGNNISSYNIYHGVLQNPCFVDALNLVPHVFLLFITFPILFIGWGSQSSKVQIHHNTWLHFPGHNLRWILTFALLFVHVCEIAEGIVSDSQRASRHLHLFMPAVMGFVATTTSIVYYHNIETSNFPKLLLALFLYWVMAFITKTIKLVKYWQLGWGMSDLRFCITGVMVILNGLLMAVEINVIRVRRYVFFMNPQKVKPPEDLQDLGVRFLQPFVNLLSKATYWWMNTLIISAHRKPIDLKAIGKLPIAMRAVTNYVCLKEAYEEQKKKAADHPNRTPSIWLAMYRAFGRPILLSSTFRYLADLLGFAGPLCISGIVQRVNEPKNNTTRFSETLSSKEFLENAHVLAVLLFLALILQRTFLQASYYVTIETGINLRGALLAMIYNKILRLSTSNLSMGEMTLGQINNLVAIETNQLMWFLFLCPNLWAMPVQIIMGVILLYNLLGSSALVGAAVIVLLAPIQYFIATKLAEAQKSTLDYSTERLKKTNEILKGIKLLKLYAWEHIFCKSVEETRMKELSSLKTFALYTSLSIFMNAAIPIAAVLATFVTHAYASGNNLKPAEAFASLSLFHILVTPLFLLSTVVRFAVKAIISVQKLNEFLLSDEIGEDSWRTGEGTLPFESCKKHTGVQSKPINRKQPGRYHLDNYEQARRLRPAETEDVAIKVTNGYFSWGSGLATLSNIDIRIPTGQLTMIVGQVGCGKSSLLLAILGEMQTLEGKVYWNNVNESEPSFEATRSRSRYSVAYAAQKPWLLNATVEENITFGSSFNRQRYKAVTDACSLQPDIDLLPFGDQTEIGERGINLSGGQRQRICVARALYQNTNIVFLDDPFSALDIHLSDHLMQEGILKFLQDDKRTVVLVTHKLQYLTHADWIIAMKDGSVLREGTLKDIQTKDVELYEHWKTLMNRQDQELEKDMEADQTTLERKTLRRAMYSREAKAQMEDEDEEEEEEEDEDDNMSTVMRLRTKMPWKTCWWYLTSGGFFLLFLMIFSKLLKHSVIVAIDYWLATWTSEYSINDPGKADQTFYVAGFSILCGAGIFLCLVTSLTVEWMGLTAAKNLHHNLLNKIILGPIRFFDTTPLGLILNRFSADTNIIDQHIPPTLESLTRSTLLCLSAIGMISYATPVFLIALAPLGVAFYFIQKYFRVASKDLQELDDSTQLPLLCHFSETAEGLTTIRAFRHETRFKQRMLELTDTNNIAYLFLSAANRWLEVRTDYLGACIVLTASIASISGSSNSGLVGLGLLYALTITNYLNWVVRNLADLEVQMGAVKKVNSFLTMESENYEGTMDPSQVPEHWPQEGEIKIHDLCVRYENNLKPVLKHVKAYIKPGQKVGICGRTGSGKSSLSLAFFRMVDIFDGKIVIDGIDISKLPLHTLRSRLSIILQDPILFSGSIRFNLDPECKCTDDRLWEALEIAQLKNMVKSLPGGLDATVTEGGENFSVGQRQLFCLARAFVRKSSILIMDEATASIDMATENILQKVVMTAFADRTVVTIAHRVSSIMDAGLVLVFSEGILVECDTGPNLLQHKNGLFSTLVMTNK

Row | Compound | pED50
1 | CC(C)NC(=O)NC1CC(C)(C)Oc2ccc(Br)cc21 (configuration not stated) | < 3.52
2 | CC(C)NC(=O)NC1CC(C)(C)Oc2ccc(F)cc21 (configuration not stated) | 3.96
3 | CCNC(=O)NC1CC(C)(C)Oc2ccc(F)cc21 (configuration not stated) | 4.37
4 | CC(=O)NC1CC(C)(C)Oc2ccc(Br)cc21 (configuration not stated) | 5.19
5 | CCOC(=O)NC1CC(C)(C)Oc2ccc(F)cc21 (configuration not stated) | 4.14
6 | CCOC(=O)NC1CC(C)(C)Oc2ccc(Cl)cc21 (configuration not stated) | 4.42
7 | CC1(C)CC(NC(=O)NS(=O)(=O)c2ccc(Cl)cc2)c2cc(Cl)ccc2O1 (configuration not stated) | 4.29
8 | CC1(C)CC(NC(=S)NCc2ccccc2)c2cc(F)ccc2O1 (configuration not stated) | 5.37
9 | CC1(C)CC(NC(=O)NCc2ccccc2)c2cc(Br)ccc2O1 (configuration not stated) | < 3.52
10 | CCNC(=O)NC1CC(C)(C)Oc2ccc(Br)cc21 (configuration not stated) | 5.12
11 | CC(C)NC(=O)NC1CC(C)(C)Oc2ccc(Cl)cc21 (configuration not stated) | 3.84
12 | CC1(C)CC(NC(=O)NCc2ccccc2)c2cc(Cl)ccc2O1 (configuration not stated) | 4.82
13 | CC(=O)NC1CC(C)(C)Oc2ccc(Cl)cc21 (configuration not stated) | 5.18
14 | CC(=O)NC1CC(C)(C)Oc2ccc(F)cc21 (configuration not stated) | 4.33
15 | CCNC(=S)NC1CC(C)(C)Oc2ccc(F)cc21 (configuration not stated) | 4.75
16 | CC1(C)CC(NC(=O)NS(=O)(=O)c2ccccc2)c2cc(Cl)ccc2O1 (configuration not stated) | 3.68
17 | CCNC(=S)NC1CC(C)(C)Oc2ccc(Cl)cc21 (configuration not stated) | 5.09
18 | CCOC(=O)NC1CC(C)(C)Oc2ccc(Br)cc21 (configuration not stated) | 4.59
19 | CC(C)NC(=S)NC1CC(C)(C)Oc2ccc(F)cc21 (configuration not stated) | 4.73
20 | CCNC(=S)NC1CC(C)(C)Oc2ccc(Br)cc21 (configuration not stated) | 5.43
21 | CC1(C)CC(NC(=S)NCc2ccccc2)c2cc(Br)ccc2O1 (configuration not stated) | 4.61
22 | CC(C)NC(=S)NC1CC(C)(C)Oc2ccc(Br)cc21 (configuration not stated) | 5.06
23 | CC1(C)Oc2ccc(C#N)cc2C(N2CCCC2=O)C1O (racemic) | 6.89
24 | Cc1ccc(S(=O)(=O)NC(=O)NC2CC(C)(C)Oc3ccc(Cl)cc32)cc1 (configuration not stated) | 4.2
25 | CC1(C)CC(NC(=S)NCc2ccccc2)c2cc(Cl)ccc2O1 (configuration not stated) | 4.7
26 | CCNC(=O)NC1CC(C)(C)Oc2ccc(Cl)cc21 (configuration not stated) | 5.17
27 | CC(C)NC(=S)NC1CC(C)(C)Oc2ccc(Cl)cc21 (configuration not stated) | 4.96
